# Patent US20140141099A1, “DRUG DISCOVERY METHODS” (Vertex Pharmaceuticals Incorporated, priority 2007, published 2014)
# pKi: −log10 of the molar value. Where two headings read alike, the source gives them in different places.
# How the values were obtained:
# Aurora-2 (Aurora A) = biological target: T1, Aurora-2 (Aurora A) (Homo sapiens, UniProt O14965); test: Aurora-2 (Aurora A) Inhibition Assay (coupled enzyme assay); type: biochemical
# T1 sequence (O14965 1-403): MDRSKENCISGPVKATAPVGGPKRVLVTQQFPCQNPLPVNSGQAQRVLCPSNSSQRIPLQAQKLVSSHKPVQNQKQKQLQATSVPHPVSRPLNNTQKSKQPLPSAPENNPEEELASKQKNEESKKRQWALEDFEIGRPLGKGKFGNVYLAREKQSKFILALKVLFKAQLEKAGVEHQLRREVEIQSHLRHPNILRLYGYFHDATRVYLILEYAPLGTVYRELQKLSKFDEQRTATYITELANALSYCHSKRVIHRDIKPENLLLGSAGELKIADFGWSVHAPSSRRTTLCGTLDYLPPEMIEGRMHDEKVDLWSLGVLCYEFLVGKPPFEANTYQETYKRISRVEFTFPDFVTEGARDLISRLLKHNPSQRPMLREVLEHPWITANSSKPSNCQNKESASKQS
# Protocol: Assays were carried out in a mixture of 100 mM Hepes (pH7.5), 10 mM MgCl2, 1 mM DTT, 25 mM NaCl, 2.5 mM phosphoenolpyruvate, 300 μM NADH, 30 μg/ml pyruvate kinase and 10 μg/ml lactate dehydrogenase. […] Assays were carried out at 30° C. and in the presence of 40 nM Aurora-2.
# An assay stock buffer solution was prepared containing all of the reagents listed above, with the exception of Aurora-2 and the test compound of interest. […] The plate was preincubated for 10 minutes at 30° C. and the reaction initiated by addition of 10 μl of Aurora-2. Initial reaction rates were determined with a Molecular Devices SpectraMax Plus plate reader over a 10 minute time course. IC50 and Ki data were calculated from non-linear regression analysis using the Prism software package (GraphPad Prism version 3.0cx for Macintosh, GraphPad Software, San Diego Calif., USA).
# Aurora-1 (Aurora B) = Aurora-1 (Aurora B) (Homo sapiens, UniProt Q96GD4); test: Aurora-1 (Aurora B) Inhibition Assay (Radiometric); type: biochemical
# Chain of Aurora-1 (Aurora B) (Q96GD4 whole entry): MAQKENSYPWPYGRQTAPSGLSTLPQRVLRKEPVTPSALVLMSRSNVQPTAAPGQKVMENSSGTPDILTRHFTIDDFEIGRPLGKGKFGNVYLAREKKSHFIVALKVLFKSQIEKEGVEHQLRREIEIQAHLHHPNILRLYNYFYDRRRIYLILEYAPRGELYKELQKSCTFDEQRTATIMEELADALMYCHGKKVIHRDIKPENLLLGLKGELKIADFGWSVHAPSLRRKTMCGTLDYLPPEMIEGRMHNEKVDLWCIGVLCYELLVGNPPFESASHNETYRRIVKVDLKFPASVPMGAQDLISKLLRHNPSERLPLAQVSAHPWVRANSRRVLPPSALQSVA
# Protocol: An assay buffer solution was prepared which consisted of 25 mM HEPES (pH 7.5), 10 mM MgCl2, 0.1% BSA and 10% glycerol. […] To 22 μL of the Aurora-B solution, in a 96-well plate, was added 2 μl of a compound stock solution in DMSO and the mixture allowed to equilibrate for 10 minutes at 25° C. The enzyme reaction was initiated by the addition of 16 μl stock [γ-^33P]-ATP solution (˜20 nCi/μL) prepared in assay buffer, to a final assay concentration of 800 μM. The reaction was stopped after 3 hours by the addition of 16 μL 500 mM phosphoric acid and the levels of ^33P incorporation into the peptide substrate were determined by the following method.
# A phosphocellulose 96-well plate (Millipore, Cat no. MAPHNOB50) was pre-treated with 100 μL of a 100 mM phosphoric acid prior to the addition of the enzyme reaction mixture (40 μL). The solution was left to soak on to the phosphocellulose membrane for 30 minutes and the plate subsequently washed four times with 200 μL of a 100 mM phosphoric acid. […] Levels of non-enzyme catalyzed background radioactivity were determined by adding 16 μL of the 500 mM phosphoric acid to control wells, containing all assay components (which acts to denature the enzyme), prior to the addition of the [γ-^33P]-ATP solution. Levels of enzyme catalyzed ^33P incorporation were calculated by subtracting mean background counts from those measured at each inhibitor concentration. […] Ki values were calculated from initial rate data by non-linear regression using the Prism software package (Prism 3.0, Graphpad Software, San Diego, Calif.).
# tumor = test: Animal model of tumor growth inhibition, once a week dosing; type: in vivo
# From the text: Applicants have discovered that for compounds that display a […] binding mechanism with slow, tight-binding kinetics, the Ki* value is a much better predictive tool for cell potency than is Ki. In some embodiments, such compounds have a strong pharmacodynamic profile, resulting in long term cell activity that would allow for shorter dosing regimens in vivo. A typical dosing regimen for Aurora inhibitors in animal models is, e.g., at least once a day dosing. In one embodiment, applicants' invention allows for selecting compounds that may be dosed less than once a day.
SMILES,pKi (Aurora-2 (Aurora A); read-out: Aurora A Ki),pKi (Aurora-1 (Aurora B)),pKi (Aurora-2 (Aurora A)),tumor growth inhibition (tumor)
CCC(=O)Nc1ccc(Sc2nc(Nc3cc(C)n[nH]3)cc(N3CCC(N(C)C(C)(C)C)CC3)n2)cc1 [Compound 15],8.60,7.50,–,–
CCC(=O)Nc1ccc(Sc2nc(Nc3cc(C)n[nH]3)cc(N3CC4CN(C(C)C)CC4C3)n2)cc1 (stereo not drawn) [Compound 19],8.27,7.46,–,–
CCC(=O)Nc1ccc(Sc2nc(Nc3cc(C)n[nH]3)cc(N3CCN(C(C)(C)CO)CC3)n2)cc1 [Compound 8],8.56,7.81,–,–
CCOc1ccc(Sc2nc(Nc3cc(C)n[nH]3)cc(N3CCN(C(C)(C)C)CC3)n2)cc1 [Compound 36],8.28,7.34,–,–
Cc1cc(Nc2cc(N3CC(O)(C4CC4)C3)nc(Sc3ccc(NC(=O)C4CC4)cc3)n2)n[nH]1 [Compound 31],9.06,8.15,–,–
Cc1cc(Nc2cc(N3CC(F)(C4CC4)C3)nc(Sc3ccc(NC(=O)CC(F)(F)F)cc3)n2)[nH]n1 [Compound 35],9.45,8.17,–,–
CCC(=O)Nc1ccc(Sc2nc(Nc3cc(C)n[nH]3)cc(N3CCN(C(C)(C)CC)CC3)n2)cc1 [Compound 9],8.59,7.71,–,–
Cc1cc(Nc2cc(N3CCN(C(C)(C)C)CC3)nc(Sc3ccc(NC(=O)C4CCCC4)cc3)n2)[nH]n1 [Compound 5],8.46,7.67,–,–
CCC(=O)Nc1ccc(Sc2nc(Nc3cc(C)n[nH]3)cc(N3CC[C@H](N4CCCC4)C3)n2)cc1 [Compound 16],8.24,7.01,–,–
Cc1cc(Nc2cc(N3CCC3)nc(Sc3ccc(NC(=O)c4ccccc4C(F)(F)F)cc3)n2)[nH]n1 [Compound 13],9.42,8.35,–,–
Cc1cc(Nc2cc(N3CCC(N4CCCC4)CC3)nc(Sc3ccc4ccccc4c3)n2)[nH]n1 [Compound 33],8.16,7.19,–,–
CCC(=O)Nc1ccc(Sc2nc(Nc3cc(C)n[nH]3)cc(N3CCC(NC(C)(C)C)CC3)n2)cc1 [Compound 11],8.11,7.55,–,–
CCC(=O)Nc1ccc(Sc2nc(NCCN3CCCCC3)cc(Nc3cc(C)n[nH]3)n2)cc1 [Compound 1],8.05,7.46,–,–
COc1cccc(Sc2nc(NC3=NN=C(C)C3)cc(N3CCN(C(C)(C)C)CC3)n2)c1 [Compound 4],8.07,6.84,–,–
CCC(=O)Nc1ccc(Sc2nc(Nc3cc(C4CC4)n[nH]3)cc(N3CCC(N4CCCC4)CC3)n2)cc1 [Compound 18],8.56,7.84,–,–
CCC(=O)Nc1ccc(Sc2nc(Nc3cc(C)n[nH]3)cc(N3CCC(N4CCCC4)CC3)n2)cc1 [Compound 7],8.34,7.30,–,–
CCC(=O)Nc1ccc(Sc2nc(Nc3cc(C)n[nH]3)cc(N3CCN(C(C)(C)C)CC3)n2)cc1 [Compound 2],–,7.95,8.67,very good tumor growth inhibition
CCC(=O)Nc1ccc(Sc2nc(Nc3cc(C)n[nH]3)cc(N3CC(O)(C4CC4)C3)n2)cc1 [Compound 21],9.41,–,–,–

# Now from value to compound, other results behind:
pKi (Aurora-2 (Aurora A); read-out: Aurora A Ki),pKi (Aurora-1 (Aurora B)),pKi (Aurora-2 (Aurora A)),SMILES,tumor growth inhibition (tumor)
8.67,7.65,–,Cc1cc(Nc2cc(N3CCN(C(C)(C)C)CC3)nc(Sc3ccc(NC(=O)C4CC4)cc3)n2)[nH]n1 [Compound 3],–
8.94,–,–,CCC(=O)Nc1ccc(Sc2nc(Nc3cc(C)n[nH]3)cc(N3CC(O)(C(C)C)C3)n2)cc1 [Compound 30],–
9.20,7.29,–,Cc1cc(Nc2cc(N3CC(O)(C4CC4)C3)nc(Sc3ccc4ccccc4c3)n2)n[nH]1 [Compound 34],–
8.74,7.85,–,C#CC(C)(C)N1CCN(c2cc(Nc3cc(C)n[nH]3)nc(Sc3ccc(NC(=O)CC)cc3)n2)CC1 [Compound 6],–
9.13,7.60,–,CCC(=O)Nc1ccc(Sc2nc(Nc3cc(C)n[nH]3)cc(N3CC4(C3)OCC4(C)C)n2)cc1 [Compound 26],–
9.44,6.85,–,CCC(=O)Nc1ccc(Sc2nc(Nc3cc(C)n[nH]3)cc(N3CCC(O)(c4cc(F)ccc4OC)CC3)n2)cc1 [Compound 24],–
9.15,8.14,–,Cc1cc(Nc2cc(N3CCC3)nc(Sc3ccc(NC(=O)CC(F)(F)F)cc3)n2)n[nH]1 [Compound 12],–
8.70,7.65,–,CCC(=O)Nc1ccc(Sc2nc(Nc3cc(C)n[nH]3)cc(N3CCN(C(C)(C)CF)CC3)n2)cc1 [Compound 10],–
8.69,7.22,–,CCC(=O)Nc1ccc(Sc2nc(Nc3cc(C)n[nH]3)cc(N3CCC4(CCN(C)C4)CC3)n2)cc1 [Compound 17],–
9.05,6.64,–,CCC(=O)Nc1ccc(Sc2nc(Nc3cc(C)n[nH]3)cc(N3CCC(C#N)(c4ccccc4OC)CC3)n2)cc1 [Compound 25],–
8.87,7.84,–,CCC(=O)Nc1ccc(Sc2nc(Nc3cc(C)n[nH]3)cc(N3CC(C)(OC(C)C)C3)n2)cc1 [Compound 28],–
9.17,8.30,–,CCC(=O)Nc1ccc(Sc2nc(Nc3cc(C)n[nH]3)cc(N3CC(C)(N4CCCC4)C3)n2)cc1 [Compound 22],–
9.28,6.21,–,CCC(=O)Nc1ccc(Sc2nc(Nc3cc(C)n[nH]3)cc(N3CC=C(C(C)(C)C)CC3)n2)cc1 [Compound 23],–
9.46,6.99,–,CCC(=O)Nc1ccc(Sc2nc(Nc3cc(C)n[nH]3)cc(N3CCC(O)(C(C)(C)C)C3)n2)cc1 (stereo not drawn) [Compound 27],–
9.23,7.87,–,CCC(=O)Nc1ccc(Sc2nc(Nc3cc(C)n[nH]3)cc(N3CCC(O)(C(C)(C)C)CC3)n2)cc1 [Compound 14],–
9.46,8.40,–,Cc1cc(Nc2cc(N3CCC(F)C3)nc(Sc3ccc(NC(=O)CC(F)(F)F)cc3)n2)[nH]n1 (stereo not drawn) [Compound 32],–
9.46,8.35,–,CCC(=O)Nc1ccc(Sc2nc(Nc3cc(C)n[nH]3)cc(N3CC(O)(C(C)(C)C)C3)n2)cc1 [Compound 20],–
